{"source": "patent US10842739B2", "about": "“Biodegradable alpha-2 agonist polymeric implants and therapeutic uses thereof” (Allergan, Inc., priority 2008, dated 2020)", "origin": "cited, not measured here", "note": "Where two headings read alike, the source gives them in different places.", "data": [{"molecule": "Brc1c(NC2=NCCN2)ccc2nccnc12", "note": "[brimonidine freebase, 5-bromo-6-(2-imidazolidinylideneamino)quinoxaline]", "values": [{"measurement": "water solubility (in words)", "result": "negligible"}, {"measurement": "water solubility (in words)", "setting": "listed as Brimonidine free base", "result": "poorly water soluble"}, {"measurement": "water solubility (in words)", "setting": "listed as brimonidine free base", "result": "not water soluble"}]}]}
